Experimental findings from EP0435794A1, “Alkenyl- or heteroaryl thio, sulfone, sulfoxy herbicides” (RHONE-POULENC AGROCHIMIE, priority 1989, dated 1991) are described below.

Type in all cases: in vivo
One series relates to Panicum milicaeum. The series is described as follows: Exemple C: selectivity test in field crops, pre-emergence (weed). To be noted: 24 days. The source says:
(§1) Exemple C - Essai de sélectivité en grandes cultures avec application herbicide, en prélevée des espèces végétales
(§2) Dans des pots de 7 X 7 X 8 cm remplis de terre agricole légère, on sème un nombre de graines déterminé en fonction de l'espèce végétale et de la grosseur de la graine.
(§3) On recouvre ensuite les graines d'une couche de terre d'environ 3 mm d'épaisseur.
(§4) Les pots sont alors traités par pulvérisation de bouillie en quantité correspondant à une dose volumique d'application de 500 l/ha et contenant la matière active à la concentration désirée.
(§5) La bouillie a été préparée de la même manière qu'à l'exemple A.
(§6) Les pots traités sont ensuite placés dans des bacs destinés à recevoir l'eau d'arrosage, en subirrigation, et maintenus pendant 24 jours à température ambiante sous 70 % d'humidité relative.
(§7) Le relevé est effectué de la façon suivante:
(§8) Au bout de 24 jours, on mesure un pourcentage (D) de destruction du nombre de pieds dans le pot traité par rapport au nombre de plantes dans les pots non traités (témoin). On mesure, sur les plantes traitées restantes, le pourcentage de réduction de taille (RT) par rapport aux plantes témoins.
(§9) Le pourcentage de volume foliaire non détruit par le produit est donc donné par la formule: ([100-D] X [100-RT])/(100)= A [formula]
(§10) Cette valeur A est transformée en notation de 0 à 5 selon l'échelle suivante:
(§11) Ainsi, un produit est jugé comme sélectif vis à vis de la culture lorsque la valeur A notée est de 0 ou 1.
(§12) Les résultats obtenus sont présentés dans l'exemple C pour des doses d'application de 500, 1000, 2000 ou 4000 g de matière active par hectare selon les produits.
(§13) Les espèces végétales utilisées dans cet exemple sont: […]

The subject of a further series is Sorghum halepense. Described as above. To be noted: 24 days.
Source text: as §1, §2, §3, §4, §5, §6, §7, §8, §9, §10, §11, §12, §13

The subject of the next series is Alopecurus myosuroides. The description is as above. The settings on record: 24 days.
Source text: as §1, §2, §3, §4, §5, §6, §7, §8, §9, §10, §11, §12, §13

For a further series, the system named is Setaria faberii. Described as above. To be noted: 24 days.
Source text: as §1, §2, §3, §4, §5, §6, §7, §8, §9, §10, §11, §12, §13

The next series deals with Echinochloa crus-galli. The description is as above. To be noted: 24 days.
Source text: as §1, §2, §3, §4, §5, §6, §7, §8, §9, §10, §11, §12, §13

In a further series the test system is maïs. The series is described as follows: Exemple C: selectivity test in field crops, pre-emergence (crop). Further: ranges in brackets are in %. The settings on record: 24 days, 0 or 1 = selective.
Source text: as §1, §2, §3, §4, §5, §6, §7, §8, §9, §10, §11, §12
(§14) Les espèces végétales utilisées dans cet exemple sont:
(§15) Comme on peut le voir sur le tableau de résultats de cet exemple C, de nombreux produits présentent une excellente activité antigraminée de prélevée tout en montrant une excellente sélectivité pour 1 ou 2 ou 3 ou 4 des 4 cultures testées = blé, maïs, riz, soja.

The next series deals with blé. The description is as above. To be noted: 24 days, 0 or 1 = selective.
Source text: as §1, §2, §3, §4, §5, §6, §7, §8, §9, §10, §11, §12, §14, §15

The next series deals with soja. The description is as above. To be noted: 24 days, 0 or 1 = selective.
Source text: as §1, §2, §3, §4, §5, §6, §7, §8, §9, §10, §11, §12, §14, §15

The subject of a further series is riz. The series is described as above. To be noted: 24 days, 0 or 1 = selective.
Source text: as §1, §2, §3, §4, §5, §6, §7, §8, §9, §10, §11, §12, §14, §15

The test system of the next series is Digitaria sanguinalis. The series is described as follows: Exemple C: selectivity test in field crops, pre-emergence (weed). The settings on record: 24 days.
Source text: as §1, §2, §3, §4, §5, §6, §7, §8, §9, §10, §11, §12, §13
Wherever Notation de l'activité herbicide GLY is given: ranges in brackets are in %.
Wherever Notation de l'activité herbicide ORY is given: ranges in brackets are in %.
Wherever Notation de l'activité herbicide TRZ is given: ranges in brackets are in %.

In the case of `CC(=O)OC(CBr)(CS(=O)(=O)c1sccc1Br)c1ccccc1` (stereo not drawn) [compound 60, 2-acétoxy 3-bromo 1-[(3-bromo 2-thiényl)sulfonyl] 2-phényl propane], the “Notation de l'activité herbicide PAN” value in the series on Panicum milicaeum (dose 0.5 Kg m.a./ha) is 3 (30 à 50). The “Notation de l'activité herbicide SOR” value in the series with Sorghum halepense (dose 0.5 Kg m.a./ha) was 5 (O à 10). In addition, in the series on Alopecurus myosuroides (dose 0.5 Kg m.a./ha), the “Notation de l'activité herbicide ALO” value is 2 (50 à 70). Besides, the “Notation de l'activité herbicide SET” value with Setaria faberii (dose 0.5 Kg m.a./ha) was 4 (10 à 30). Besides, the “Notation de l'activité herbicide ECh” value in the series on Echinochloa crus-galli (dose 0.5 Kg m.a./ha) was 5 (O à 10). Also, the “Notation de l'activité herbicide ZEA” value in the series with maïs (dose 0.5 Kg m.a./ha) was 0 (90 à 100). In addition, in the series on blé (dose 0.5 Kg m.a./ha), the “Notation de l'activité herbicide TRZ” value is listed as 0 (90 à 100). Besides, the “Notation de l'activité herbicide GLY” value in the series on soja (dose 0.5 Kg m.a./ha) is 0 (90 à 100). Moreover, the “Notation de l'activité herbicide ORY” value in the series with riz (dose 0.5 Kg m.a./ha) is reported as 0 (90 à 100).
As for `O=S(=O)(CC(O)(CBr)c1cccc(F)c1)c1sccc1Cl` (stereo not drawn) [compound 67], in the series with Panicum milicaeum (dose 0.5 Kg m.a./ha), the “Notation de l'activité herbicide PAN” value is 4 (10 à 30). Also, the “Notation de l'activité herbicide SOR” value with Sorghum halepense (dose 0.5 Kg m.a./ha) is on record as 1 (70 à 90). The “Notation de l'activité herbicide ALO” value in the series with Alopecurus myosuroides (dose 0.5 Kg m.a./ha) was 2 (50 à 70). The “Notation de l'activité herbicide SET” value in the series on Setaria faberii (dose 0.5 Kg m.a./ha) is recorded as 4 (10 à 30). Also, the “Notation de l'activité herbicide ECh” value in the series with Echinochloa crus-galli (dose 0.5 Kg m.a./ha) was 4 (10 à 30). Moreover, the “Notation de l'activité herbicide DIG” value in the series on Digitaria sanguinalis (dose 0.5 Kg m.a./ha) is listed as 5 (O à 10). Further, the “Notation de l'activité herbicide ZEA” value with maïs (dose 0.5 Kg m.a./ha) is on record as 1 (70 à 90). The “Notation de l'activité herbicide TRZ” value with blé (dose 0.5 Kg m.a./ha) is given as 0 (90 à 100). For the same compound, in the series on soja (dose 0.5 Kg m.a./ha), the “Notation de l'activité herbicide GLY” value is 0 (90 à 100). For the same compound, the “Notation de l'activité herbicide ORY” value in the series on riz (dose 0.5 Kg m.a./ha) is 0 (90 à 100).
Take `Cc1ccsc1S(=O)(=O)CC(O)(CBr)c1ccccc1` (stereo not drawn) [compound 63]: the “Notation de l'activité herbicide PAN” value with Panicum milicaeum (dose 1 Kg m.a./ha) is recorded as 4 (10 à 30). Further, in the series on Sorghum halepense (dose 1 Kg m.a./ha), the “Notation de l'activité herbicide SOR” value was 5 (O à 10). For the same compound, the “Notation de l'activité herbicide ALO” value with Alopecurus myosuroides (dose 1 Kg m.a./ha) is 3 (30 à 50). The “Notation de l'activité herbicide SET” value with Setaria faberii (dose 1 Kg m.a./ha) is on record as 5 (O à 10). Further, in the series with Digitaria sanguinalis (dose 1 Kg m.a./ha), the “Notation de l'activité herbicide DIG” value is on record as 5 (O à 10). The “Notation de l'activité herbicide ZEA” value in the series with maïs (dose 1 Kg m.a./ha) is 2 (50 à 70). Moreover, the “Notation de l'activité herbicide TRZ” value with blé (dose 1 Kg m.a./ha) is 3 (30 à 50). In addition, the “Notation de l'activité herbicide GLY” value in the series on soja (dose 1 Kg m.a./ha) is on record as 0 (90 à 100). The “Notation de l'activité herbicide ORY” value in the series with riz (dose 1 Kg m.a./ha) is listed as 4 (10 à 30).
As for `C=C(CS(=O)(=O)c1sc(C)nc1C)c1cccc(F)c1` [compound 45], the “Notation de l'activité herbicide PAN” value in the series on Panicum milicaeum (dose 1 Kg m.a./ha) is reported as 5 (O à 10). Besides, in the series on Sorghum halepense (dose 1 Kg m.a./ha), the “Notation de l'activité herbicide SOR” value is listed as 5 (O à 10). Further, the “Notation de l'activité herbicide ALO” value with Alopecurus myosuroides (dose 1 Kg m.a./ha) is on record as 5 (O à 10). Besides, the “Notation de l'activité herbicide SET” value in the series on Setaria faberii (dose 1 Kg m.a./ha) is on record as 3 (30 à 50). For the same compound, in the series with Echinochloa crus-galli (dose 1 Kg m.a./ha), the “Notation de l'activité herbicide ECh” value is given as 5 (O à 10). Moreover, in the series on Digitaria sanguinalis (dose 1 Kg m.a./ha), the “Notation de l'activité herbicide DIG” value was 4 (10 à 30). Besides, the “Notation de l'activité herbicide ZEA” value with maïs (dose 1 Kg m.a./ha) is given as 0 (90 à 100). Also, the “Notation de l'activité herbicide TRZ” value in the series on blé (dose 1 Kg m.a./ha) is given as 1 (70 à 90). Also, the “Notation de l'activité herbicide GLY” value in the series on soja (dose 1 Kg m.a./ha) is reported as 0 (90 à 100). Moreover, the “Notation de l'activité herbicide ORY” value in the series on riz (dose 1 Kg m.a./ha) is recorded as 0 (90 à 100).
Take `C=C(CS(=O)(=O)c1cc(C)sc1C)c1ccccc1` [compound 51]: the “Notation de l'activité herbicide PAN” value in the series with Panicum milicaeum (dose 1 Kg m.a./ha) is on record as 4 (10 à 30). The “Notation de l'activité herbicide SOR” value in the series on Sorghum halepense (dose 1 Kg m.a./ha) is listed as 4 (10 à 30). Besides, the “Notation de l'activité herbicide ALO” value with Alopecurus myosuroides (dose 1 Kg m.a./ha) is listed as 4 (10 à 30). In addition, in the series on Setaria faberii (dose 1 Kg m.a./ha), the “Notation de l'activité herbicide SET” value is 4 (10 à 30). Further, the “Notation de l'activité herbicide ECh” value in the series with Echinochloa crus-galli (dose 1 Kg m.a./ha) is recorded as 4 (10 à 30). In the series on Digitaria sanguinalis (dose 1 Kg m.a./ha), the “Notation de l'activité herbicide DIG” value was 5 (O à 10). Further, the “Notation de l'activité herbicide ZEA” value in the series on maïs (dose 1 Kg m.a./ha) is 0 (90 à 100). In the series on blé (dose 1 Kg m.a./ha), the “Notation de l'activité herbicide TRZ” value is 0 (90 à 100). Besides, the “Notation de l'activité herbicide GLY” value with soja (dose 1 Kg m.a./ha) is 0 (90 à 100). Also, the “Notation de l'activité herbicide ORY” value in the series with riz (dose 1 Kg m.a./ha) is on record as 0 (90 à 100).
Turning to `O=S(=O)(CC(O)(CBr)c1cc(Cl)cc(Cl)c1)c1cccs1` (stereo not drawn) [compound 62], the “Notation de l'activité herbicide PAN” value in the series with Panicum milicaeum (dose 1 Kg m.a./ha) is reported as 4 (10 à 30). Besides, the “Notation de l'activité herbicide SOR” value in the series with Sorghum halepense (dose 1 Kg m.a./ha) is 2 (50 à 70). In addition, the “Notation de l'activité herbicide SET” value in the series with Setaria faberii (dose 1 Kg m.a./ha) is recorded as 4 (10 à 30). Moreover, in the series on Echinochloa crus-galli (dose 1 Kg m.a./ha), the “Notation de l'activité herbicide ECh” value is 5 (O à 10). In addition, the “Notation de l'activité herbicide DIG” value in the series on Digitaria sanguinalis (dose 1 Kg m.a./ha) is 5 (O à 10). Besides, in the series with maïs (dose 1 Kg m.a./ha), the “Notation de l'activité herbicide ZEA” value is recorded as 1 (70 à 90). Besides, in the series with blé (dose 1 Kg m.a./ha), the “Notation de l'activité herbicide TRZ” value is given as 2 (50 à 70). The “Notation de l'activité herbicide GLY” value with soja (dose 1 Kg m.a./ha) is on record as 0 (90 à 100). Besides, in the series with riz (dose 1 Kg m.a./ha), the “Notation de l'activité herbicide ORY” value is given as 2 (50 à 70).
